# Measured values published in ChEMBL document CHEMBL5113491, “Discovery of N-benzylarylamide derivatives as novel tubulin polymerization inhibitors capable of activating the Hippo pathway” (Eur J Med Chem, 2022).
# The source made the active and inactive calls. The rule behind the calls is not given here.
# Columns and labels:
# KYSE-450 = assay: Antiproliferative activity against human KYSE-450 cells assessed as inhibition of cell growth measured after 48 hrs by MTT assay; type: functional, cell-based; settings: KYSE-450, 48 h
# MGC-803 = assay: Antiproliferative activity against human MGC-803 cells assessed as inhibition of cell growth measured after 48 hrs by MTT assay; type: functional, cell-based; settings: MGC-803, 48 h
# HCT-116 = assay: Antiproliferative activity against human HCT-116 cells assessed as inhibition of cell growth measured after 48 hrs by MTT assay; type: functional, cell-based; settings: HCT-116, 48 h
# Sus scrofa = species on record: Sus scrofa; assay: Inhibition of porcine brain microtubule polymerization at 3 umol/L measured after 5 sec by fluorescence based assay; settings: dose 3.0 µmol/L
# [1] = Inhibition of porcine brain microtubule polymerization measured after 1 hrs by fluorescence based assay; set-up: species or system Sus scrofa
SMILES,IC50 (MGC-803),IC50 (HCT-116),inhibition (Sus scrofa),IC50 (KYSE-450),IC50 [1]
COc1cc2c(c(OC)c1OC)-c1ccc(OC)c(=O)cc1[C@@H](NC(C)=O)CC2 [COLCHICINE],62 nM,81 nM,–,77 nM,–
COc1ccc(NCc2cc(OC)c(OC)c(OC)c2)cc1O,9590 nM,5230 nM,Active,4180 nM,–
COc1cc(NCc2ccc(Cl)cc2)cc(OC)c1OC,> 80000 nM,> 80000 nM,–,> 80000 nM,–
COc1cc(NCc2ccccc2)cc(OC)c1OC,> 80000 nM,> 80000 nM,–,> 80000 nM,–
COc1ccc(/C=C\c2cc(OC)c(OC)c(OC)c2)cc1O [COMBRETASTATIN A4],8 nM,10 nM,–,12 nM,6710 nM
COc1cc(NCc2ccc(Br)cc2)cc(OC)c1OC,> 80000 nM,> 80000 nM,–,> 80000 nM,–
COc1ccc(CNc2cc(OC)c(OC)c(OC)c2)cc1C,56800 nM,60800 nM,–,73800 nM,–
COc1ccc(N(Cc2cc(OC)c(OC)c(OC)c2)C(=O)CN=[N+]=[N-])cc1O,22400 nM,38800 nM,–,26100 nM,–
COc1ccc(CNc2cc(OC)c(OC)c(OC)c2)cc1Br,29400 nM,48100 nM,–,39800 nM,–
C/C=C/C(=O)N(Cc1cccc(O)c1)c1cc(OC)c(OC)c(OC)c1,14100 nM,6700 nM,–,14700 nM,–
COc1ccc(CNc2cc(OC)c(OC)c(OC)c2)cc1OC,46200 nM,50800 nM,–,57200 nM,–
COc1ccc(CNc2cc(OC)c(OC)c(OC)c2)cc1Cl,46200 nM,41700 nM,–,47800 nM,–
COc1cc(NCc2cccc(O)c2)cc(OC)c1OC,57600 nM,67700 nM,–,71300 nM,–
C/C=C/C(=O)N(Cc1ccc(OC)c(C)c1)c1cc(OC)c(OC)c(OC)c1,14500 nM,23500 nM,–,32900 nM,–
COc1ccc(CNc2cc(OC)c(OC)c(OC)c2)cc1[N+](=O)[O-],19400 nM,18200 nM,–,16800 nM,–
COc1ccc(CNc2cc(OC)c(OC)c(OC)c2)cc1F,39700 nM,32200 nM,–,46200 nM,–
COc1cc(NCc2ccc(C)cc2)cc(OC)c1OC,> 80000 nM,> 80000 nM,–,> 80000 nM,–
COC(=O)c1cc(CNc2cc(OC)c(OC)c(OC)c2)ccc1OC,49600 nM,38100 nM,–,41100 nM,–
COc1ccc(CNc2cc(OC)c(OC)c(OC)c2)cc1,11400 nM,18400 nM,–,4890 nM,–
COc1ccc(N(Cc2cc(OC)c(OC)c(OC)c2)C(=O)CCl)cc1O,24500 nM,22500 nM,–,29800 nM,–
C/C=C/C(=O)N(Cc1ccc(OC)c(OC)c1)c1cc(OC)c(OC)c(OC)c1,20100 nM,32800 nM,–,39100 nM,–

# More lines, main results first:
IC50 (MGC-803),IC50 (HCT-116),inhibition (Sus scrofa),SMILES,IC50 (KYSE-450),IC50 [1]
79 nM,230 nM,–,COCC(=O)N(Cc1ccc(OC)c(O)c1)c1cc(OC)c(OC)c(OC)c1,460 nM,–
320 nM,290 nM,–,COc1ccc(CN(C(=O)C=C(C)C)c2cc(OC)c(OC)c(OC)c2)cc1O,280 nM,–
160 nM,520 nM,–,COc1ccc(CN(C(=O)CO)c2cc(OC)c(OC)c(OC)c2)cc1O,370 nM,–
6150 nM,8450 nM,–,C/C=C/C(=O)N(Cc1cc(OC)c(OC)c(OC)c1)c1ccc(OC)c(O)c1,9160 nM,–
59 nM,49 nM,–,COc1ccc(CN(C(=O)C2CC2)c2cc(OC)c(OC)c(OC)c2)cc1O,80 nM,–
70 nM,95 nM,–,CCC/C=C/C(=O)N(Cc1ccc(OC)c(O)c1)c1cc(OC)c(OC)c(OC)c1,57 nM,–
66 nM,170 nM,–,CCCCC(=O)N(Cc1ccc(OC)c(O)c1)c1cc(OC)c(OC)c(OC)c1,300 nM,–
540 nM,220 nM,–,COc1ccc(CN(C(=O)CCCCCl)c2cc(OC)c(OC)c(OC)c2)cc1O,770 nM,–
140 nM,150 nM,–,COc1ccc(CN(C(=O)CCCl)c2cc(OC)c(OC)c(OC)c2)cc1O,110 nM,–
1490 nM,3220 nM,Active,COc1ccc(CNc2cc(OC)c(OC)c(OC)c2)cc1O,1400 nM,–
79 nM,270 nM,–,COc1ccc(CN(C(C)=O)c2cc(OC)c(OC)c(OC)c2)cc1O,160 nM,–
1650 nM,1160 nM,–,C/C=C/C(=O)N(Cc1ccc(OC)c(F)c1)c1cc(OC)c(OC)c(OC)c1,1400 nM,–
50 nM,61 nM,–,CCC(=O)N(Cc1ccc(OC)c(O)c1)c1cc(OC)c(OC)c(OC)c1,98 nM,–
6430 nM,2800 nM,–,C/C=C/C(=O)N(Cc1ccc(OC)c(Br)c1)c1cc(OC)c(OC)c(OC)c1,10500 nM,–
71 nM,59 nM,–,COc1ccc(CN(C(=O)/C=C/CBr)c2cc(OC)c(OC)c(OC)c2)cc1O,100 nM,–
58 nM,63 nM,–,CC/C=C/C(=O)N(Cc1ccc(OC)c(O)c1)c1cc(OC)c(OC)c(OC)c1,72 nM,–

IC50 (MGC-803),IC50 (HCT-116),inhibition (Sus scrofa),SMILES,IC50 (KYSE-450),IC50 [1]
120 nM,410 nM,–,COc1ccc(CN(C(=O)CN=[N+]=[N-])c2cc(OC)c(OC)c(OC)c2)cc1O,160 nM,–
7100 nM,1420 nM,–,C/C=C/C(=O)N(Cc1ccc(OC)c(Cl)c1)c1cc(OC)c(OC)c(OC)c1,10100 nM,–
140 nM,68 nM,–,COc1ccc(CN(C(=O)CBr)c2cc(OC)c(OC)c(OC)c2)cc1O,120 nM,–
120 nM,140 nM,–,COc1ccc(CN(C(=O)C(C)Br)c2cc(OC)c(OC)c(OC)c2)cc1O (centres undefined),160 nM,–
84 nM,250 nM,–,COc1ccc(CN(C(=O)CCl)c2cc(OC)c(OC)c(OC)c2)cc1O,210 nM,–
450 nM,500 nM,–,C/C=C/C(=O)N(Cc1ccc(OC)cc1)c1cc(OC)c(OC)c(OC)c1,420 nM,–
150 nM,300 nM,–,C/C=C/C(=O)N(Cc1ccc(OC)c(N)c1)c1cc(OC)c(OC)c(OC)c1,310 nM,–
170 nM,310 nM,–,C#CC(=O)N(Cc1ccc(OC)c(O)c1)c1cc(OC)c(OC)c(OC)c1,570 nM,–
390 nM,200 nM,–,C=C(C)C(=O)N(Cc1ccc(OC)c(O)c1)c1cc(OC)c(OC)c(OC)c1,200 nM,–
62 nM,98 nM,–,C=CC(=O)N(Cc1ccc(OC)c(O)c1)c1cc(OC)c(OC)c(OC)c1,160 nM,–
590 nM,670 nM,–,C/C=C/C(=O)N(Cc1ccc(OC)c([N+](=O)[O-])c1)c1cc(OC)c(OC)c(OC)c1,510 nM,–
7970 nM,8270 nM,–,COc1ccc(CNc2cc(OC)c(OC)c(OC)c2)cc1N,2210 nM,–
270 nM,310 nM,–,COc1ccc(CN(C(=O)C[Se]C#N)c2cc(OC)c(OC)c(OC)c2)cc1O,280 nM,–
210 nM,310 nM,–,COc1ccc(CN(C(=O)C(C)C)c2cc(OC)c(OC)c(OC)c2)cc1O,390 nM,–
140 nM,180 nM,–,C/C=C/C=C/C(=O)N(Cc1ccc(OC)c(O)c1)c1cc(OC)c(OC)c(OC)c1,180 nM,–
